Source: patent US7132287B2, “Method for neural stem cell differentiation using 5HT-1A agonists” (Psychiatric Genomics, Inc., priority 2001, dated 2006)

Experiments:
cerebellar stem cells = test: Astrocytic differentiation of cerebellar stem cells (GFAP positive cells); format: cell-based, rat; conditions: for % GFAP positive cells: Table 2 experiment
Description: (§1) Drug treatments. Stem cells obtained as described above were treated with drugs and subjected to differentiation protocols in the second passage. Cells were plated at a density of 1×10^4 cells per well of a 12-well petridish (Falcon).
Drug treatments were started on the next day. […] The WAY 100635 antagonist compound was used simultaneously with buspirone or serotonin in the blocking experiments. Positive and negative control cultures were those treated with BDNF and FGF alone, respectively.
Cells were treated with the designated concentrations of drugs or combinations thereof, daily, and were fed every alternate day with fresh medium. Experiments were maintained for about 6–10 days in most cases. Cells were fixed on about day 7–11 with a 4% solution of para-formaldehyde (PFA) in PBS, prepared as follows:
Immunofluorescent staining and visualization. After fixation, the PBS was aspirated from the fixed cells and the cells were treated with blocking solution (10% normal goat serum-NGS-Jackson Labs), 0.3% Triton-Sigma, in PBS) to saturate non-specific sites and permeabilize the cells. Following blocking, cells were incubated with the following designated primary antibodies diluted in 5% NGS for 1 hour at room temperatuare: mouse monoclonal anti-MAP-2 (Sigma): 1/250 dilution; mouse monoclonal anti-β tubulin III (Covance): 1/600 dilution; mouse anti-monoclonal glial fibrillary acidic protein (GFAP-ICN Biomedicals): 1/100 dilution.
After the 1 hour incubation, cells were washed three times for 5 min each with PBS followed by incubation of a goat anti-mouse secondary antibody conjugated with stains Cy2 and Cy3 (Jackson Labs) for 1 hr at RT (dilution 1/100 as with the primary antibodies). Following three 5 minute washes with PBS, cells were incubated with the nuclear stain bis-benzimide (Sigma) for 10 min at RT. Cells were then washed 3 times with ultra-pure water and glass coverslips were mounted on them using AquaPolymount (Polysciences, Inc., PA) The mount was allowed to dry and the dishes were stored at 4° C.
For visualization of staining, the mounted cells were viewed under a fluorescent microscope using the appropriate ultra violet filters. An eyepiece with an engraved grid was used to count the cells that stained positive for β tubulin III (TuJ-1), MAP2 or GFAP. The percent of cells positive for a given antigen was estimated by counting nuclei of all cells present in the same field, as the nuclei of the cells stain blue with the bis benzimide. Five fields were counted per treatment condition, and averages with standard deviations were calculated.
To evaluate whether buspirone affected differentiation of neural stem cells into other neural cell types such as astrocytes, the buspirone-treated cerebellar cell cultures described above were subjected to immunofluorescence using a monoclonal antibody against an astrocyte-specific marker, glial fibrillary acidic protein, or GFAP.

striatal stem cells = test: Differentiation of striatal stem cells (TuJ1 positive cells); format: cell-based, rat; conditions: for % TuJ1 positive cells: striatal stem cells, Table 6
Excerpt: Isolation of cortical and striatal stem cells. Timed pregnant Sprague Dawley rats obtained from Taconic at embryonic age E14-E15 were sacrificed as described above and the uterus removed and placed in ice cold PBS in a 10 cm petridish. After rinsing the uterus in PBS, embryos were removed from the uterus, rinsed in PBS and collected in cold HBSS (buffered with HEPES and sodium bicarbonate) in a 10 cm petridish and placed on ice.
The cortex and striatum was dissected under a microscope and collected in a 15 ml tube of HBSS, on ice. Removal of meninges is not possible at this age, and no attempt was made to do so. If the dissected tissue was in large enough chunks and settle to the bottom of the tube, no centrifugation was performed. Alternatively, the tube was centrifuged at 1000 rpm for 5 minutes to pellet the tissue. Following centrifugation, the 15 ml tube containing the tissue was sprayed with 70% ethanol and taken into the sterile hood.
The HBSS was aspirated and replaced with 10 ml of DMEM/F12. The tissue was collected at the bottom of the tube by gravity or centrifugation, medium was aspirated, and 1 ml of DMEM/F12 was to the tissue. Cells were dissociated by trituration as described above, followed by addition of 5 ml of DMEM/F12 and a second round of trituration. […] The tubes were placed standing 5–10 minutes in the hood to allow larger particles and meninges to settle. While the meninges were settling, a cell count was made. 10 μl of the cell suspension is diluted with trypan blue and counted in a hemocytometer. Cells were counted in the four outer chambers with the larger squares, and cell count calculated assuming that the volume enclosed in each of the chambers was […].
Plating, expansion and passaging of cortical and striatal stem cells A generous amount of the triturated cell suspension was left in the original 15 ml tube to avoid fibroblast contamination in cultures. About 4–5 ml of the 6 ml of cells suspension was used for plating. Cells were plated at a concentration of approximately 1×10^6 per 10 cm dish. This culture is designated P0 (passage 0).
Following plating cells were expanded for about 3–4 days. The cultures were never permitted to reach more than 70% confluency. Cultures were then passaged as follows: 5 ml of HBSS was added to each 10 cm dish and the cells incubated at 37° C. for 15–45 minutes, or until sufficient numbers of the stem cells were rounded up. It is not expected that all cells in the culture will round up as there are several cell types in the culture at P0. The pH of the HBSS should be neutral at all times during this incubation. Cells were then removed from the dish by pipetting with a 5 ml pipette, or by scraping with a policeman, collected in a 15 or 50 ml conical tube, and centrifuged at 1000 g for 5 minutes. Cells were gently re-suspended in medium, counted, and plated at a density of about 1×10^6 per 10 cm dish.
as §1
Drug treatments were started on the next day. […] The WAY 100635 antagonist compound was used simultaneously with buspirone or serotonin in the blocking experiments. Positive and negative control cultures were those treated with BDNF and FGF alone, respectively. […]

With `O=C1CC2(CCCC2)CC(=O)N1CCCCN1CCN(c2ncccn2)CC1` [buspirone, 8-[4-[4-(2-pyrimidinyl)-1-piperazinyl]butyl]-8-azaspiro[4,5]decane-7,9-dione] the “% GFAP positive cells” value (cerebellar stem cells; 10 nM) was 26.3 ± 3.7%, the “effect on astrocytic differentiation” value (cerebellar stem cells; 30 nM to 1 μM, FIG. 1B and FIG. 4) was “does not have any appreciable reproducible effects” and the “% GFAP positive cells” value (cerebellar stem cells; 30 nM) was 12.9 ± 1.9%. For the same molecule, the “% GFAP positive cells” value (cerebellar stem cells; 100 nM) was 20.6 ± 5.2%, the “% GFAP positive cells” value (cerebellar stem cells; 300 nM) was 21.4 ± 4.6% and the “% GFAP positive cells” value (cerebellar stem cells; 1000 nM) was 27.0 ± 9.0%. The “% TuJ1 positive cells” value (striatal stem cells; 100 nM) was 54.4 ± 2.1%, the “% TuJ1 positive cells” value (striatal stem cells; 500 nM) was 64.8 ± 2.1% and the “% TuJ1 positive cells” value (striatal stem cells; 10 μM) was 67.9 ± 10.2%. For the same molecule, the “% TuJ1 positive cells” value (striatal stem cells; 100 μM) was 68.5 ± 6.5% and the “promotion of differentiation compared to untreated control cultures (in words)” value (striatal stem cells; striatum, concentrations as low as 100 nM) was “able to promote differentiation significantly”.
